According to patent US20070224194A1, “Methods for Inhibiting Angiogenesis and/or Lymphangiogenesis” (LUDWIG INSTITUTE FOR CANCER RESEARCH, priority 2004, published 2007):
The star is where a group is joined. Decanoyl = CCCCCCCCCC(=O)*; CH2Cl = ClC*

Columns and labels:
[1] = test system: proteolytic processing of VEGF-C; assay: Processing of VEGF-C secreted by 293EBNA cells expressing VEGF-C-FULL-N-Myc (immunoprecipitation/Western blot); type: cell-based, human; settings: 0, 1, 10, 50 or 100 μM, 18 hours, Western blot
Experimental: 293EBNA cells stably transfected with an expression construct encoding VEGF-C-FULL-N-Myc (full-length VEGF-C tagged with Myc at the N-terminus) or VEGF-D-FULL-N-FLAG (full-length VEGF-D tagged with FLAG at the N-terminus) secrete fully and partially processed forms of VEGF-C or VEGF-D into the culture medium (Joukov et al., EMBO J. 16:3898-3911 1997; Stacker et al., J. Biol. Chem. 274: 32127-32136, 1999). These cells were grown overnight in 24-well plates, seeded with 8×10^4 cells per well. At the time when cultures were initiated in these plates, growth medium was supplemented with Dec-RVKR-CMK (Calbiochem) (dissolved in methanol) to a final concentration of 0, 1, 10, 50 or 100 μM. Solvent control cultures were also established, in which the medium was supplemented with methanol at concentrations equal to those present in the cultures treated with inhibitor. […]
VEGF-C species were immunoprecipitated from conditioned medium by addition of anti-VEGF-C antibody that binds the VHD and C-terminal propeptide (R&D Systems). […] The precipitated VEGF-C and VEGF-D species were then analysed by Western blot using biotinylated antibodies against the VHD and C terminus of VEGF-C, or the VHD of VEGF-D (R&D Systems) and streptavidin-horse radish peroxidase conjugate (Zymed) (FIGS. 1 and 2). […]

[2] = test system: proteolytic processing of VEGF-D; assay: Processing of VEGF-D secreted by 293EBNA cells expressing VEGF-D-FULL-N-FLAG (immunoprecipitation/Western blot); type: cell-based, human; settings: for proteolytic processing of full-length VEGF-D: 100 μM
Experimental: 293EBNA cells stably transfected with an expression construct encoding VEGF-C-FULL-N-Myc (full-length VEGF-C tagged with Myc at the N-terminus) or VEGF-D-FULL-N-FLAG (full-length VEGF-D tagged with FLAG at the N-terminus) secrete fully and partially processed forms of VEGF-C or VEGF-D into the culture medium (Joukov et al., EMBO J. 16:3898-3911 1997; Stacker et al., J. Biol. Chem. 274: 32127-32136, 1999). These cells were grown overnight in 24-well plates, seeded with 8×10^4 cells per well. At the time when cultures were initiated in these plates, growth medium was supplemented with Dec-RVKR-CMK (Calbiochem) (dissolved in methanol) to a final concentration of 0, 1, 10, 50 or 100 μM. Solvent control cultures were also established, in which the medium was supplemented with methanol at concentrations equal to those present in the cultures treated with inhibitor. After 18 hours of growth (at 37° C., 10% CO2 in a humidified environment), conditioned cell culture medium was removed from the cells and cleared by centrifugation (5 minutes, 250×g, 4° C.).
VEGF-C species were immunoprecipitated from conditioned medium by addition of anti-VEGF-C antibody that binds the VHD and C-terminal propeptide (R&D Systems). VEGF-D species were immunoprecipitated by addition of A2 antiserum that binds within the VHD of VEGF-D (Stacker et al., J. Biol. Chem. 274: 32127-32136, 1999). Immune complexes were allowed to form for 2 hours at 4° C. with gentle agitation and precipitated by addition of 10 μl of protein A sepharose beads and incubation for 2 hours at 4° C. with gentle agitation. Protein A sepharose complexes were recovered by centrifugation (5 minutes, 250×g, 4° C.) and washed twice with ice cold 50 mM Tris, 150 mM NaCl, pH 8.0. The precipitated VEGF-C and VEGF-D species were then analysed by Western blot using biotinylated antibodies against the VHD and C terminus of VEGF-C, or the VHD of VEGF-D (R&D Systems) and streptavidin-horse radish peroxidase conjugate (Zymed) (FIGS. 1 and 2). […]
The 293EBNA cell lines expressing VEGF-D-FULL-FLAG, VEGF-DΔC or VEGF-DΔN were seeded into 24-well plates (8×10^4 cells/well), in medium supplemented with Dec-RVKR-CMK dissolved in methanol, to a final concentration of 0, 1, 10, 50 or 100 μM. […] The precipitated VEGF-D species were then analysed by reducing SDS-PAGE and Western blotting using a biotinylated antibody against the VHD of human VEGF-D (R&D Systems), and Streptavidin-horse radish peroxidase conjugate (Zymed).

[3] = test system: proteolytic processing of VEGF-DΔC; assay: Processing of VEGF-DΔC by 293EBNA cells (cleavage of N-terminal propeptide from VHD); type: cell-based, human; settings: for band representing mature VHD from VEGF-DΔC: 1, 10, 50, 100 μM, 18 hours
From the text: An expression plasmid encoding a truncated derivative of human VEGF-D consisting of the N-terminal propeptide and the VHD tagged at the carboxyl terminus with the FLAG epitope (referred to as VEGF-DΔC) (FIG. 3, top panel) has been previously described (Stacker et al, J. Biol. Chem. 274 32127-32136, 1999). The VEGF-DΔC protein construct facilitates study of cleavage of the N-terminal propeptide from the VHD. The conditioned media of 293EBNA cells stably transfected with the VEGF-DΔC expression plasmid contain a mixture of VEGF-D proteins, including unprocessed VEGF-DΔC, and the proteolytically processed VHD. A second cell line was generated by stable transfection of 293EBNA cells with an expression construct encoding VEGF-DΔN, a truncated derivative of human VEGF-D consisting of the VHD tagged at the amino terminus with the FLAG epitope and C-terminal propeptide (FIG. 3, top panel). This protein construct facilitates study of cleavage of the C-terminal propeptide from the VHD. The conditioned media of 293EBNA cells expressing VEGF-DΔN contain a mixture of VEGF-D proteins, consisting of unprocessed VEGF-DΔN, and the proteolytically processed VHD. The VEGF-DΔN expression plasmid was constructed by replacing the 2-kb EcoRV fragment of the pAPEX-3 construct for full-length VEGF-D with the 2-kb EcoRV fragment of the pAPEX-3 construct for VEGF-DΔNΔC-FLAG (Stacker et al, J. Biol. Chem. 274 32127-32136, 1999).
The 293EBNA cell lines expressing VEGF-D-FULL-FLAG, VEGF-DΔC or VEGF-DΔN were seeded into 24-well plates (8×10^4 cells/well), in medium supplemented with Dec-RVKR-CMK dissolved in methanol, to a final concentration of 0, 1, 10, 50 or 100 μM. After 18 hours incubation (37° C., 10% CO2 in an humidified incubator), conditioned cell culture media were removed and clarified by centrifugation (5 minutes, 250×g, 4° C.). VEGF-D species were immunoprecipitated from conditioned media of 293EBNA VEGF-DΔC cells by addition of M2-agarose beads (Sigma-Aldrich), that bind the FLAG epitope attached to the carboxyl-terminus of the VHD, and from conditioned media of 293EBNA VEGF-DΔN cells by addition of A2 antiserum, that binds to epitopes within the VHD (Stacker et al, J. Biol. Chem. 274 32127-32136, 1999), followed by incubation with protein-A sepharose beads. Beads and bound proteins were recovered by centrifugation (5 minutes, 250×g, 4° C.) and washed twice with Tris-buffered saline (TBS; 50 mM Tris-Cl, 150 mM NaCl, pH 8.0). The precipitated VEGF-D species were then analysed by reducing SDS-PAGE and Western blotting using a biotinylated antibody against the VHD of human VEGF-D (R&D Systems), and Streptavidin-horse radish peroxidase conjugate (Zymed).

[4] = test system: VEGF-D propeptide processing; assay: VEGF-D processing by Balbc/3T3 cells that naturally produce VEGF-D; type: cell-based; settings: 100 μM
From the text: Finally, the effect of dec-RVKR-CMK on VEGF-D processing by Balbc/3T3 cells that naturally produce this growth factor (i.e., in cells that had not been transfected so as to express VEGF-D) was examined.

Furin = Furin (Homo sapiens, UniProt P09958); settings: cited from earlier work
Chain of Furin (P09958 108-794, species assumed): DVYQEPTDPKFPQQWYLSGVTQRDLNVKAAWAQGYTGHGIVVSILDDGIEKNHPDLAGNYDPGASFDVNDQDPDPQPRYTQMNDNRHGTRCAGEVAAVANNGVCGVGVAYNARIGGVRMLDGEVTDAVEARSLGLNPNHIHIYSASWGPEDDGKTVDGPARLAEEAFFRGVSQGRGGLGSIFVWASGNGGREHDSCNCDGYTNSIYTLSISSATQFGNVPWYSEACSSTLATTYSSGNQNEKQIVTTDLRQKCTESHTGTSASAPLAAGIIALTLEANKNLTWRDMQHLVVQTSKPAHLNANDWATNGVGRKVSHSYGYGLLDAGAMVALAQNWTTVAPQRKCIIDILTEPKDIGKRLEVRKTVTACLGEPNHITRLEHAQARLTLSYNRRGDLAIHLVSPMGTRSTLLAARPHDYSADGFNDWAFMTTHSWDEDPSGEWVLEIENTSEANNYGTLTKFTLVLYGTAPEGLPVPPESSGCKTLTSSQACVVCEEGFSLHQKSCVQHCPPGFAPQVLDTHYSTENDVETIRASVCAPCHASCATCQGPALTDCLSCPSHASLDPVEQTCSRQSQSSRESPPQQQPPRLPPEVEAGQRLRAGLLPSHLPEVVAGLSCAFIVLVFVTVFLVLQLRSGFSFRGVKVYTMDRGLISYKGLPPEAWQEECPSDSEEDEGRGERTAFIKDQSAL

Decanoyl-Arg-Val-Lys-Arg-chloromethylketone (Decanoyl-RVKR-CH2Cl) [Dec-RVKR-CMK]
abundance of fully and partially processed forms of VEGF-C [1]: dramatically reduced in abundance in a dose-dependent manner | abundance of fully and partially processed forms of VEGF-D ([2]; 0, 1, 10, 50 or 100 μM, 18 hours, Western blot): dramatically reduced in abundance in a dose-dependent manner | proteolytic processing of full-length VEGF-D ([2]; 18 hours): totally blocked | proteolytic processing of full-length VEGF-D ([2]; 18 hours, listed as dec-RVKR-CMK): complete inhibition | proteolysis of VEGF-D-FULL-N-FLAG ([2]; concentrations lower than 100 μM): incompletely inhibited | proteolytic cleavage of the N-terminal propeptide from the VHD, at both Major and Minor cleavage sites [3]: completely abrogated | proteolytic processing of VEGF-DΔC ([3]; 100 μM): completely blocked | band representing mature VHD from VEGF-DΔC [3]: reduced in abundance in a dose dependent manner | band representing mature VHD from VEGF-DΔC ([3]; listed as dec-RVKR-CMK): blocked each of these processing events in a dose-dependent fashion | VEGF-D propeptide processing [4]: almost completely blocked | inhibition of furin (Furin): potently inhibited
